Data: the supplement of paper PMC11451515

Tested on: P12-Ichikawa
Assay: cell viability relative to DMSO control; higher = less cytotoxic
Details: 48 h
Method in brief: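 Viability is a per-plate percentage relative to DMSO wells, with cell-free wells as background. CellTiter-Glo One luminescence was read after 48 h at 37°C on 1536-well plates (5 μl) of NOMO1 or SEM (500 cells/well) or P12-Ichikawa (1000 cells/well) leukemia cells. The cells had been adapted for at least four passages in each medium and pin-dosed with library compounds in DMSO from 47 μM to 0.79 nM in 11 threefold steps.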

[1] = HPLM + 10% dialyzed FBS, 0.000781 µM
[2] = HPLM + 10% dialyzed FBS, 0.00234 µM
[3] = HPLM + 10% dialyzed FBS, 0.00702 µM
[4] = HPLM + 10% dialyzed FBS, 0.0211 µM
[5] = HPLM + 10% dialyzed FBS, 0.0632 µM
[6] = HPLM + 10% dialyzed FBS, 0.19 µM
[7] = HPLM + 10% dialyzed FBS, 0.569 µM
[8] = HPLM + 10% dialyzed FBS, 1.71 µM
[9] = HPLM + 10% dialyzed FBS, 5.12 µM
[10] = HPLM + 10% dialyzed FBS, 15.4 µM
[11] = HPLM + 10% dialyzed FBS, 46.1 µM
[12] = RPMI 5 mM glucose + 10% FBS, 0.000781 µM
[13] = RPMI 5 mM glucose + 10% FBS, 0.00234 µM
[14] = RPMI 5 mM glucose + 10% FBS, 0.00702 µM
[15] = RPMI 5 mM glucose + 10% FBS, 0.0211 µM
[16] = RPMI 5 mM glucose + 10% FBS, 0.0632 µM
[17] = RPMI 5 mM glucose + 10% FBS, 0.19 µM
[18] = RPMI 5 mM glucose + 10% FBS, 0.569 µM
[19] = RPMI 5 mM glucose + 10% FBS, 1.71 µM
[20] = RPMI 5 mM glucose + 10% FBS, 5.12 µM
[21] = RPMI 5 mM glucose + 10% FBS, 15.4 µM
[22] = RPMI 5 mM glucose + 10% FBS, 46.1 µM
[23] = RPMI 5 mM glucose + 10% dialyzed FBS, 0.000781 µM
[24] = RPMI 5 mM glucose + 10% dialyzed FBS, 0.00234 µM
[25] = RPMI 5 mM glucose + 10% dialyzed FBS, 0.00702 µM
[26] = RPMI 5 mM glucose + 10% dialyzed FBS, 0.0211 µM
[27] = RPMI 5 mM glucose + 10% dialyzed FBS, 0.0632 µM
[28] = RPMI 5 mM glucose + 10% dialyzed FBS, 0.19 µM
[29] = RPMI 5 mM glucose + 10% dialyzed FBS, 0.569 µM
[30] = RPMI 5 mM glucose + 10% dialyzed FBS, 1.71 µM
[31] = RPMI 5 mM glucose + 10% dialyzed FBS, 5.12 µM
[32] = RPMI 5 mM glucose + 10% dialyzed FBS, 15.4 µM
[33] = RPMI 5 mM glucose + 10% dialyzed FBS, 46.1 µM

Row | SMILES | cell viability [1] | cell viability [2] | cell viability [3] | cell viability [4] | cell viability [5] | cell viability [6] | cell viability [7] | cell viability [8] | cell viability [9] | cell viability [10] | cell viability [11] | cell viability [12] | cell viability [13] | cell viability [14] | cell viability [15] | cell viability [16] | cell viability [17] | cell viability [18] | cell viability [19] | cell viability [20] | cell viability [21] | cell viability [22] | cell viability [23] | cell viability [24] | cell viability [25] | cell viability [26] | cell viability [27] | cell viability [28] | cell viability [29] | cell viability [30] | cell viability [31] | cell viability [32] | cell viability [33]
1 | CCN(c1ccccc1)c1cc(NC)[n+](C)c(C)n1 | 108% | 111% | 108% | 106% | 111% | 114% | 107% | 107% | 119% | 102% | 101% | 112% | 114% | 120% | 114% | 118% | 106% | 114% | 105% | 108% | 109% | 98.9% | 114% | 109% | 112% | 116% | 111% | 118% | 117% | 117% | 111% | 104% | 106%
2 | N[S+](=O)([O-])OC[C@@H]1C[C@@H](n2ccc3c(N[C@H]4CCc5ccccc54)ncnc32)C[C@@H]1O | 95.1% | 102% | 110% | 102% | 113% | 118% | 116% | 82.2% | 38.3% | 16.1% | 12.7% | 107% | 105% | 107% | 126% | 108% | 120% | 116% | 61.5% | 31.2% | 9.99% | 8.16% | 97.4% | 111% | 106% | 110% | 98.2% | 106% | 100% | 54.1% | 34.4% | 12.3% | 11.2%
3 | CC1(C)C(N(O)C(=O)Nc2ccc(Cl)cc2)N(c2ccc(Cl)cc2)C(=O)N1CC(=O)N/N=C/C=C/c1ccc([N+](=O)[O-])o1 (centres undefined) | 112% | 109% | 111% | 113% | 115% | 104% | 105% | 103% | 99.4% | 103% | 65.6% | 108% | 105% | 105% | 110% | 113% | 107% | 110% | 106% | 102% | 100% | 52.4% | 115% | 104% | 115% | 111% | 109% | 113% | 104% | 103% | 103% | 91.3% | 49%
